Tested on: 624824-186-R-J3-PDC multicell spheroids, viability
Assay: Anticancer human tumor 624824-186-R-J3-PDC patient-derived colon adenocarcinoma cell line growth inhibition [PI3K]
Conditions: for IC50: curve of first compound; for viability, T/C: stronger effect = lower value
Summary of the method: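 Viability of mixed-cell spheroids was determined after exposure to pairwise combinations, one partner being inavolisib, alpelisib, duvelisib or copanlisib. Highest tested concentration matched clinical Cmax where known and 10 microM where not, descending in half-log steps.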

[1] = second compound 0.0316 µM, first compound 0.0316 µM
[2] = second compound 0.0316 µM, first compound 0.1 µM
[3] = second compound 0.1 µM, first compound 0.0316 µM
[4] = second compound 0.1 µM, first compound 0.1 µM
[5] = second compound 0.316 µM, first compound 0.0316 µM
[6] = second compound 0.316 µM, first compound 0.1 µM
[7] = second compound 1 µM, first compound 0.0316 µM
[8] = second compound 1 µM, first compound 0.1 µM
[9] = second compound 3.16 µM, first compound 0.0316 µM
[10] = second compound 3.16 µM, first compound 0.1 µM
[11] = second compound 10 µM, first compound 0.0316 µM
[12] = second compound 10 µM, first compound 0.1 µM
[13] = second compound 0.0316 µM, first compound 0.316 µM
[14] = second compound 0.0316 µM, first compound 1 µM
[15] = second compound 0.0316 µM, first compound 3.16 µM
[16] = second compound 0.0316 µM, first compound 10 µM
[17] = second compound 0.1 µM, first compound 0.316 µM
[18] = second compound 0.1 µM, first compound 1 µM
[19] = second compound 0.1 µM, first compound 3.16 µM
[20] = second compound 0.1 µM, first compound 10 µM
[21] = second compound 0.316 µM, first compound 0.316 µM
[22] = second compound 0.316 µM, first compound 1 µM
[23] = second compound 0.316 µM, first compound 3.16 µM
[24] = second compound 0.316 µM, first compound 10 µM
[25] = second compound 1 µM, first compound 0.316 µM
[26] = second compound 1 µM, first compound 1 µM
[27] = second compound 1 µM, first compound 3.16 µM
[28] = second compound 1 µM, first compound 10 µM
[29] = second compound 3.16 µM, first compound 0.316 µM
[30] = second compound 3.16 µM, first compound 1 µM
[31] = second compound 3.16 µM, first compound 3.16 µM
[32] = second compound 3.16 µM, first compound 10 µM
[33] = second compound 10 µM, first compound 0.316 µM
[34] = second compound 10 µM, first compound 1 µM
[35] = second compound 10 µM, first compound 3.16 µM
[36] = second compound 10 µM, first compound 10 µM
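Further: spheroids exposed to agents for seven days before luminescence read.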
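Wherever viability, T/C is given: luminescent signal used as a stand-in for spheroid viability; percent viability relative to DMSO vehicle control wells taken as 100%.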

## CC(C)n1nc(-c2ccc3oc(N)nc3c2)c2c(N)ncnc21 + CC(Nc1ncnc2nc[nH]c12)c1cc2cccc(Cl)c2c(=O)n1-c1ccccc1
Second compound 0.0316 µM
  IC50: > 0.1 µM
Second compound 0.1 µM
  IC50: > 0.1 µM
Second compound 0.316 µM
  IC50: > 0.1 µM
Second compound 1 µM
  IC50: > 0.1 µM
Second compound 3.16 µM
  IC50: 0.0918 µM
Second compound 10 µM
  IC50: 0.0619 µM
Second compound 0.0316 µM, first compound 0.000316 µM
  viability, T/C: 97.5%
Second compound 0.0316 µM, first compound 0.001 µM
  viability, T/C: 102%
Second compound 0.0316 µM, first compound 0.00316 µM
  viability, T/C: 103%
Second compound 0.0316 µM, first compound 0.01 µM
  viability, T/C: 101%
[1]
  viability, T/C: 98.7%
[2]
  viability, T/C: 62.4%
Second compound 0.1 µM, first compound 0.000316 µM
  viability, T/C: 95.5%
Second compound 0.1 µM, first compound 0.001 µM
  viability, T/C: 107%
Second compound 0.1 µM, first compound 0.00316 µM
  viability, T/C: 116%
Second compound 0.1 µM, first compound 0.01 µM
  viability, T/C: 107%
[3]
  viability, T/C: 91.5%
[4]
  viability, T/C: 69%
Second compound 0.316 µM, first compound 0.000316 µM
  viability, T/C: 98.8%
Second compound 0.316 µM, first compound 0.001 µM
  viability, T/C: 101%
Second compound 0.316 µM, first compound 0.00316 µM
  viability, T/C: 113%
Second compound 0.316 µM, first compound 0.01 µM
  viability, T/C: 109%
[5]
  viability, T/C: 97.1%
[6]
  viability, T/C: 58.7%
Second compound 1 µM, first compound 0.000316 µM
  viability, T/C: 102%
Second compound 1 µM, first compound 0.001 µM
  viability, T/C: 111%
Second compound 1 µM, first compound 0.00316 µM
  viability, T/C: 100%
Second compound 1 µM, first compound 0.01 µM
  viability, T/C: 103%
[7]
  viability, T/C: 98.1%
[8]
  viability, T/C: 62.2%
Second compound 3.16 µM, first compound 0.000316 µM
  viability, T/C: 105%
Second compound 3.16 µM, first compound 0.001 µM
  viability, T/C: 111%
Second compound 3.16 µM, first compound 0.00316 µM
  viability, T/C: 96.3%
Second compound 3.16 µM, first compound 0.01 µM
  viability, T/C: 97.1%
[9]
  viability, T/C: 85.3%
[10]
  viability, T/C: 46.6%
Second compound 10 µM, first compound 0.000316 µM
  viability, T/C: 93.2%
Second compound 10 µM, first compound 0.001 µM
  viability, T/C: 91.3%
Second compound 10 µM, first compound 0.00316 µM
  viability, T/C: 95.1%
Second compound 10 µM, first compound 0.01 µM
  viability, T/C: 79.9%
[11]
  viability, T/C: 68.1%
[12]
  viability, T/C: 37.6%

## CNC(=O)c1ccc(N2C(=S)N(c3ccc(C#N)c(C(F)(F)F)c3)C(=O)C2(C)C)cc1F + Cc1nc(NC(=O)N2CCCC2C(N)=O)sc1-c1ccnc(C(C)(C)C(F)(F)F)c1
Second compound 0.0316 µM
  IC50: > 10 µM
Second compound 0.1 µM
  IC50: > 10 µM
Second compound 0.316 µM
  IC50: > 10 µM
Second compound 1 µM
  IC50: > 10 µM
Second compound 3.16 µM
  IC50: > 10 µM
Second compound 10 µM
  IC50: > 10 µM
[1]
  viability, T/C: 104%
[2]
  viability, T/C: 94.4%
[13]
  viability, T/C: 101%
[14]
  viability, T/C: 102%
[15]
  viability, T/C: 107%
[16]
  viability, T/C: 113%
[3]
  viability, T/C: 96.9%
[4]
  viability, T/C: 100%
[17]
  viability, T/C: 109%
[18]
  viability, T/C: 98.4%
[19]
  viability, T/C: 104%
[20]
  viability, T/C: 104%
[5]
  viability, T/C: 107%
[6]
  viability, T/C: 101%
[21]
  viability, T/C: 117%
[22]
  viability, T/C: 99.1%
[23]
  viability, T/C: 113%
[24]
  viability, T/C: 93%
[7]
  viability, T/C: 100%
[8]
  viability, T/C: 96.3%
[25]
  viability, T/C: 105%
[26]
  viability, T/C: 101%
[27]
  viability, T/C: 104%
[28]
  viability, T/C: 95%
[9]
  viability, T/C: 91.1%
[10]
  viability, T/C: 89.4%
[29]
  viability, T/C: 83.9%
[30]
  viability, T/C: 77.7%
[31]
  viability, T/C: 88%
[32]
  viability, T/C: 85.5%
[11]
  viability, T/C: 74.3%
[12]
  viability, T/C: 65.3%
[33]
  viability, T/C: 69.4%
[34]
  viability, T/C: 67.8%
[35]
  viability, T/C: 73.8%
[36]
  viability, T/C: 70.1%

## CCCS(=O)(=O)Nc1ccc(F)c(C(=O)c2c[nH]c3ncc(-c4ccc(Cl)cc4)cc23)c1F + Cc1nc(NC(=O)N2CCCC2C(N)=O)sc1-c1ccnc(C(C)(C)C(F)(F)F)c1
Second compound 0.0316 µM
  IC50: 5.14 µM
Second compound 0.1 µM
  IC50: 4.63 µM
Second compound 0.316 µM
  IC50: 3.75 µM
Second compound 1 µM
  IC50: 1.99 µM
Second compound 3.16 µM
  IC50: 0.525 µM
Second compound 10 µM
  IC50: 0.0866 µM
[1]
  viability, T/C: 108%
[2]
  viability, T/C: 92.1%
[13]
  viability, T/C: 103%
[14]
  viability, T/C: 92.6%
[15]
  viability, T/C: 80.5%
[16]
  viability, T/C: 10.2%
[3]
  viability, T/C: 95.6%
[4]
  viability, T/C: 88.1%
[17]
  viability, T/C: 94.6%
[18]
  viability, T/C: 82.1%
[19]
  viability, T/C: 69.7%
[20]
  viability, T/C: 12.8%
[5]
  viability, T/C: 115%
[6]
  viability, T/C: 87.9%
[21]
  viability, T/C: 80.7%
[22]
  viability, T/C: 73.7%
[23]
  viability, T/C: 68.4%
[24]
  viability, T/C: 14.6%
[7]
  viability, T/C: 84.6%
[8]
  viability, T/C: 89.8%
[25]
  viability, T/C: 62%
[26]
  viability, T/C: 65.2%
[27]
  viability, T/C: 43.7%
[28]
  viability, T/C: 13.7%
[9]
  viability, T/C: 77.6%
[10]
  viability, T/C: 64.8%
[29]
  viability, T/C: 52%
[30]
  viability, T/C: 44.6%
[31]
  viability, T/C: 34.7%
[32]
  viability, T/C: 9.51%
[11]
  viability, T/C: 57%
[12]
  viability, T/C: 50.5%
[33]
  viability, T/C: 36.1%
[34]
  viability, T/C: 31.8%
[35]
  viability, T/C: 26.6%
[36]
  viability, T/C: 6.93%

## CC1(C)CCC(Nc2ncc(C(F)(F)F)c(-c3c[nH]c4c(P(C)(C)=O)c(C#N)ccc34)n2)CN1 (stereo not drawn) + COc1c(OCCCN2CCOCC2)ccc2c3n(c(=NC(=O)c4cnc(N)nc4)nc12)CCN3
Second compound 0.00316 µM
  IC50: 5.42 µM
Second compound 0.01 µM
  IC50: 5.06 µM
Second compound 0.0316 µM
  IC50: 3.6 µM
Second compound 0.1 µM
  IC50: < 0.0316 µM
Second compound 0.316 µM
  IC50: < 0.0316 µM
Second compound 1 µM
  IC50: < 0.0316 µM
Second compound 0.00316 µM, first compound 0.0316 µM
  viability, T/C: 103%
Second compound 0.00316 µM, first compound 0.1 µM
  viability, T/C: 84.7%
Second compound 0.00316 µM, first compound 0.316 µM
  viability, T/C: 87.1%
Second compound 0.00316 µM, first compound 1 µM
  viability, T/C: 85%
Second compound 0.00316 µM, first compound 3.16 µM
  viability, T/C: 95.1%
Second compound 0.00316 µM, first compound 10 µM
  viability, T/C: 3.27%
Second compound 0.01 µM, first compound 0.0316 µM
  viability, T/C: 90.8%
Second compound 0.01 µM, first compound 0.1 µM
  viability, T/C: 72.4%
Second compound 0.01 µM, first compound 0.316 µM
  viability, T/C: 76.6%
Second compound 0.01 µM, first compound 1 µM
  viability, T/C: 81.7%
Second compound 0.01 µM, first compound 3.16 µM
  viability, T/C: 89.5%
Second compound 0.01 µM, first compound 10 µM
  viability, T/C: 3.28%
[1]
  viability, T/C: 59.7%
[2]
  viability, T/C: 55.2%
[13]
  viability, T/C: 54.9%
[14]
  viability, T/C: 60.6%
[15]
  viability, T/C: 55.9%
[16]
  viability, T/C: 2.59%
[3]
  viability, T/C: 41.8%
[4]
  viability, T/C: 36.6%
[17]
  viability, T/C: 40.8%
[18]
  viability, T/C: 38.2%
[19]
  viability, T/C: 37.9%
[20]
  viability, T/C: 1.87%
[5]
  viability, T/C: 28.5%
[6]
  viability, T/C: 30.3%
[21]
  viability, T/C: 28.9%
[22]
  viability, T/C: 24.8%
[23]
  viability, T/C: 24.7%
[24]
  viability, T/C: 1.42%
[7]
  viability, T/C: 19.4%
[8]
  viability, T/C: 18.4%
[25]
  viability, T/C: 19%
[26]
  viability, T/C: 18.1%
[27]
  viability, T/C: 18%
[28]
  viability, T/C: 1.68%

— PubChem BioAssay AID1963977 (Molecular Pharmacology Branch, DTP, NCI, 2024)
